Results taken from the supplement of paper PMC13380429.

Tests used:
Conditions in all cases: 72 h
HepG2 [1] = test: drug sensitivity score (DSS) for viability; higher = more toxic; extreme values may be limits of the assay
Caco-2 [2] = test: as above
Calu-3 [3] = test: as above
U2OS [4] = test: as above
Vero E6 [5] = test: as above
HepG2 [6] = test: cell viability relative to DMSO; higher = less toxic
Caco-2 [7] = test: as above
Calu-3 [8] = test: as above
U2OS [9] = test: as above
Vero E6 [10] = test: as above
HepG2 [11] = test: relative viability EC50 (midpoint between 100% and the lowest measured viability); higher = less toxic
Caco-2 [12] = test: as above
Calu-3 [13] = test: as above
U2OS [14] = test: as above
Vero E6 [15] = test: as above

Row | Compound | drug sensitivity score (HepG2 [1]) | drug sensitivity score (Caco-2 [2]) | drug sensitivity score (Calu-3 [3]) | drug sensitivity score (U2OS [4]) | drug sensitivity score (Vero E6 [5]) | cell viability (HepG2 [6]; 1 nM) [%] | cell viability (HepG2 [6]; 10 nM) [%] | cell viability (HepG2 [6]; 100 nM) [%] | cell viability (HepG2 [6]; 1000 nM) [%] | cell viability (HepG2 [6]; 10000 nM) [%] | cell viability (Caco-2 [7]; 1 nM) [%] | cell viability (Caco-2 [7]; 10 nM) [%] | cell viability (Caco-2 [7]; 100 nM) [%] | cell viability (Caco-2 [7]; 1000 nM) [%] | cell viability (Caco-2 [7]; 10000 nM) [%] | cell viability (Calu-3 [8]; 1 nM) [%] | cell viability (Calu-3 [8]; 10 nM) [%] | cell viability (Calu-3 [8]; 100 nM) [%] | cell viability (Calu-3 [8]; 1000 nM) [%] | cell viability (Calu-3 [8]; 10000 nM) [%] | cell viability (U2OS [9]; 1 nM) [%] | cell viability (U2OS [9]; 10 nM) [%] | cell viability (U2OS [9]; 100 nM) [%] | cell viability (U2OS [9]; 1000 nM) [%] | cell viability (U2OS [9]; 10000 nM) [%] | cell viability (Vero E6 [10]; 1 nM) [%] | cell viability (Vero E6 [10]; 10 nM) [%] | cell viability (Vero E6 [10]; 100 nM) [%] | cell viability (Vero E6 [10]; 1000 nM) [%] | cell viability (Vero E6 [10]; 10000 nM) [%] | relative viability EC50 (HepG2 [11]) [µM] | relative viability EC50 (Caco-2 [12]) [µM] | relative viability EC50 (Calu-3 [13]) [µM] | relative viability EC50 (U2OS [14]) [µM] | relative viability EC50 (Vero E6 [15]) [µM]
1 | CC(=O)CCCCn1c(=O)c2c(ncn2C)n(C)c1=O [pentoxifylline] | 0 | 0 | 0 | 0 | 0 | 88.1 | 98.5 | 110 | 94.3 | 106 | 98.1 | 115 | 97 | 114 | 89.1 | 99.7 | 95 | 104 | 95.8 | 98.1 | 101 | 96.1 | 102 | 94.2 | 100 | 104 | 110 | 108 | 108 | 99.2 | > 10 | > 10 | > 10 | > 10 | > 10
2 | O=C1OC(c2ccc(O)cc2)(c2ccc(O)cc2)c2ccccc21 [phenolphthalein] | 0 | 0 | 0 | 0 | 0 | 131 | 76.1 | 112 | 105 | 119 | 86.3 | 77.8 | 99.7 | 93.2 | 102 | 96.1 | 94.8 | 94.2 | 102 | 102 | 99.1 | 96.1 | 99.7 | 97 | 105 | 95.8 | 93.2 | 87.4 | 95.3 | 107 | > 10 | > 10 | > 10 | > 10 | > 10
3 | O=C(CCc1ccc(O)cc1)c1c(O)cc(O)cc1O[C@@H]1O[C@H](CO)[C@@H](O)[C@H](O)[C@H]1O [phlorizin] | 0 | 0 | 0 | 0 | 0 | 107 | 87.5 | 94.9 | 96.9 | 106 | 94.3 | 118 | 98.3 | 97.7 | 93.7 | 89.7 | 95.5 | 93.2 | 94.3 | 95.3 | 96.7 | 98.5 | 93.3 | 104 | 94.5 | 96.4 | 97.9 | 98.4 | 96.7 | 97.3 | > 10 | > 10 | > 10 | > 10 | > 10
4 | CC[C@@H]1C(=O)OC[C@@H]1Cc1cncn1C [pilocarpine] | 0 | 0 | 0 | 0 | 0 | 97.7 | 95.3 | 105 | 104 | 105 | 100 | 98.1 | 88.7 | 91.3 | 103 | 109 | 102 | 103 | 98.4 | 97.9 | 106 | 101 | 101 | 99.2 | 100 | 106 | 104 | 99.3 | 106 | 103 | > 10 | > 10 | > 10 | > 10 | > 10
5 | COc1cc2nc(N3CCN(C(=O)c4ccco4)CC3)nc(N)c2cc1OC [prazosin] | 0 | 0 | 0 | 0 | 0 | 89.9 | 93.5 | 86.2 | 91.9 | 97.6 | 94.4 | 91.2 | 98.4 | 96 | 92.5 | 105 | 102 | 103 | 97.4 | 99.1 | 98.2 | 97.8 | 99.5 | 102 | 101 | 102 | 105 | 101 | 99.3 | 118 | > 10 | > 10 | > 10 | > 10 | > 10
6 | CCN(CC)CCOC(=O)c1ccc(N)cc1 [procaine] | 0 | 0 | 0 | 0 | 0 | 108 | 94.9 | 100 | 97.7 | 98.9 | 92.8 | 92.7 | 96.6 | 97 | 97.3 | 100 | 93.3 | 92 | 97 | 98.3 | 100 | 95.2 | 97.9 | 94.2 | 102 | 104 | 99.4 | 99.3 | 103 | 98.5 | > 10 | > 10 | > 10 | > 10 | > 10
7 | CNC(=O)Oc1ccccc1OC(C)C [propoxur] | 0 | 0 | 0 | 0 | 1 | 105 | 93.3 | 87.5 | 93.8 | 99.7 | 99.6 | 84.6 | 104 | 88.1 | 101 | 102 | 97.1 | 86.2 | 94.4 | 104 | 101 | 97.7 | 95.7 | 94.9 | 98.2 | 95 | 106 | 102 | 88.2 | 85.4 | > 10 | > 10 | > 10 | > 10 | > 10
8 | C[C@@H](O)[C@H](N)C(=O)N1CCC[C@H]1C(=O)N1CCC[C@H]1C(=O)N[C@H](C(N)=O)[C@@H](C)O [rapastinel] | 0 | 0 | 0 | 0 | 0 | 100 | 110 | 91.9 | 104 | 97.6 | 100 | 88 | 97.6 | 97.1 | 92.6 | 95.3 | 101 | 91.4 | 96.8 | 106 | 95.7 | 94.4 | 98.8 | 95.6 | 97.3 | 97.6 | 99.5 | 95 | 102 | 114 | > 10 | > 10 | > 10 | > 10 | > 10
9 | CC(Cc1ccccc1)(NC(=O)CN)c1ccccc1 (stereo not given) [remacemide] | 0 | 0 | 0 | 0 | 0 | 99.4 | 96.1 | 100 | 94.3 | 104 | 99.6 | 92.8 | 100 | 91.5 | 102 | 102 | 93.6 | 92.5 | 98.6 | 90.8 | 98.6 | 94.7 | 99.6 | 93.6 | 94 | 99.7 | 101 | 102 | 96.2 | 99.3 | > 10 | > 10 | > 10 | > 10 | > 10
10 | CC(NCCc1ccc(O)cc1)C(O)c1ccc(O)cc1 (stereo not given) [ritodrine] | 0 | 0 | 0 | 0 | 0 | 94.5 | 102 | 91.4 | 95.8 | 103 | 91.4 | 97.7 | 95.5 | 99.7 | 105 | 102 | 105 | 93.7 | 98.3 | 101 | 96.9 | 102 | 97 | 101 | 105 | 86.5 | 93.6 | 102 | 98.9 | 109 | > 10 | > 10 | > 10 | > 10 | > 10
11 | CCN(C)C(=O)Oc1cccc([C@H](C)N(C)C)c1 [rivastigmine] | 0 | 0 | 0 | 0 | 0 | 113 | 102 | 98 | 106 | 98.2 | 109 | 95.5 | 104 | 96.7 | 95.8 | 93.5 | 95 | 101 | 98.3 | 94.4 | 95.8 | 99.2 | 99.9 | 98.7 | 103 | 101 | 106 | 103 | 106 | 97.6 | > 10 | > 10 | > 10 | > 10 | > 10
12 | CNCC(=O)O [sarcosine] | 0 | 0 | 0 | 0 | 0 | 112 | 110 | 88.4 | 106 | 107 | 93.3 | 93.4 | 95.5 | 102 | 110 | 92.9 | 98.5 | 96.7 | 89.6 | 97.7 | 96.1 | 99.2 | 99.1 | 96 | 107 | 93.4 | 97.8 | 90.4 | 103 | 112 | > 10 | > 10 | > 10 | > 10 | > 10
